From patent publication US9163018B2, “Method of treatment of age-related macular degeneration (AMD)” (Prana Biotechnology Limited, priority 2006, dated 2015)

Assays:
[1] = test system: primary cortical neuronal cultured cells; experiment: Test compound cytotoxicity, MTS assay, primary cortical neuronal cultures; assay type: cell-based, mouse; details: for Cytotox (% viable) Neuronal cells at 1 μM: 1 μM test compound; for Cytotox (% viable) Neuronal cells at 10 μM: 10 μM test compound
Method in brief: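 Primary cortical neurons were cultured five days in Neurobasal/B27, then exposed on day six to compounds (from 2.5 mM DMSO stocks) in medium minus antioxidants, in triplicate for 4 days at 37° C. Viability was measured by MTS, 2 h at 37° C, absorbance at 560 nm.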

Aβ 1-42 = molecular target: T1, Aβ 1-42 (Homo sapiens, UniProt P05067); experiment: Fluorometric H2O2 assay (inhibition of Abeta H2O2 production); assay type: biochemical; details: concentration required to inhibit 50% of Abeta H2O2 production; read-out: H2O2 IC50
T1 construct: The reaction solutions contained Aβ 1-42 at concentrations
T1 sequence (P05067 672-713 limits assumed): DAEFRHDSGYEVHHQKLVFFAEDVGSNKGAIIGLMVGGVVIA
Method in brief: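 Copper-dependent Aβ H2O2 production measured fluorometrically with deacetylated dichlorofluorescein plus HRP in PBS, pH 7.4. Incubation 60 min at 37 C, test compound included in wells. H2O2 quantified against H2O2 standards.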

[2] = test system: Abeta in extract of post-mortem human AD brain tissue; experiment: BAS: human brain amyloid solubilization assay; assay type: biochemical; details: for BAS max effect: max effect across the concentration range, referenced to baseline PBS; for BAS concentration or concentration range at which an effect is observed: units printed in each cell
Procedure: Assay 5. Human Brain Amyloid Solubilization Assay
This assay was performed in order to assess the ability of a test compound to mobilise Aβ, as an example form of amyloid, from the insoluble to the soluble phase of an extract of tissue from post mortem human AD brain.
Up to 0.5 g of plaque-bearing cortex without meninges was homogenized using a DIAX 900 homogenizer (Hendolph and Co, Kelheim, Germany) or other suitable device for three 30-second periods at full speed in 2 ml of ice-cold phosphate-buffered saline, pH 7.4. To obtain the phosphate-buffered saline-extractable fraction, the homogenate was centrifuged at 100,000×g for 30 min and the supernatant removed. Alternatively, the tissue was freeze dried then pulverized to form a powder which was then weighed out into aliquots for extraction as above. Supernatant, either freeze-dried and resuspended or in unconcentrated form, was dissolved in 200 μl of Tris-Tricine sodium dodecyl sulfate (SDS) sample buffer pH 8.3 containing 8% SDS, 10% 2-mercaptoethanol. Aliquots (10 μl) were then boiled for 10 minutes before SDS-polyacrylamide gel electrophoresis. The insoluble fraction of the cortical samples was obtained by resuspending the initial pelleted sample in 1 ml of phosphate-buffered saline, A 50-μl aliquot of this suspension was then boiled in […] of sample buffer as above.
Tris-Tricine polyacrylamide gel electrophoresis was performed by loading appropriately diluted samples on to 10% to 20% gradient gels (Novex, San Diego, Calif.) followed by transfer on to 0.2-μm nitrocellulose membrane (Bio-Rad, Hercules, Calif.). Aβ was detected by using monoclonal antibody W02, which detects residues 5 through 8, […] (or another suitable antibody) in conjunction with horseradish peroxidase-conjugated rabbit anti-mouse IgG (Dako, Denmark), and visualized by using enhanced chemiluminescence (eg ECL; Amersham Life Science, Buckinghamshire, UK). Each gel included three lanes containing 0.5, 1, and 2 ng of synthetic Aβ40 (Keck Laboratory, Yale University, New Haven, Conn.) as reference standards.
Blot films were scanned by using a suitable imaging system such as the UVP gel documentation system, and densitometry performed using suitable software, eg UVP Labworks. The dynamic range of the film/scanner was determined by using a step tablet (No. 911ST600, Kodak, Rochester N.Y.), a calibrated film exposed by the manufacturer to provided steps of known increasing intensity. The quantifiable range of signal intensity for densitometric analysis of the mono- and dimeric Aβ bands was based on the comparison with a curve obtained by scanning and densitometry of the step tablet.
All samples were analyzed at least twice, and gel loadings and dilutions were adjusted to fit within the quantifiable region of the standard curve. The proportion of ‘soluble’ to ‘insoluble’ Aβ may be used to determine the efficiency of extraction of a test compound compared with the efficiency of a known compound. The insoluble Aβ being comprised of the pelletable fraction derived from the insoluble amyloid plaque from the above cortical samples and the soluble fraction comprising monomeric and/or oligomeric soluble Aβ.

[3] = molecular target: T2, Abeta:Zn (25:50 μM) Synthetic Aggregations (Homo sapiens, UniProt P05067); experiment: Disaggregation of Abeta:Zn synthetic aggregates (ThT fluorescence); assay type: biochemical; details: for Disaggregation % Aggregate reduction at 5 μM: 5 μM test compound
T2 construct: PB Compound Mediated Dissolution of Aggregated Abeta 1-42; purchased Keck Laboratory, Yale University School of Medicine
T2 sequence (P05067 672-713 limits assumed): as above
Method in brief: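 Abeta1-42 (25 μM) with ZnCl2 (50 μM) and ThT (50 μM) in PBS pH 6.6 was preaggregated 24 h at 37 degrees with rotation. Aggregates were then exposed to compound (final 1-50 μM, DMSO) for 2 h at 37 degrees. ThT fluorescence was read at ex 450/em 480 nm.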

Row | Structure (SMILES) | Cytotox (% viable) Neuronal cells at 1 μM [1] | Cytotox (% viable) Neuronal cells at 10 μM [1] | IC50 (Aβ 1-42) [nM] | BAS max effect [2] [%] | Disaggregation % Aggregate reduction at 5 μM [3] [%] | EC50 ([3]; Abeta:Zn 25:50 μM aggregates) [nM] | BAS concentration or concentration range at which an effect is observed [2]
1 | Cc1ccccc1-c1cc(-c2ccccc2C)c2cccnc2c1O [PB 852] | 93% | 34% | 2100 | 220 | – | – | –
2 | Cl.Nc1ccc(O)c2ncccc12 [PB 44] | 108% | 71% | > 10000 | 191 | – | – | –
3 | Cc1ccccc1-c1cc(I)c(O)c2ncccc12 [PB 861] | 99% | 38% | < 910 | 439 | 31.4 | – | –
4 | COc1cc(NS(=O)(=O)c2ccc(C)cc2)c2ncccc2c1 [PB 116] | 81% | 60% | 500 | 220 | – | – | –
5 | Oc1c(I)cc(-c2ccccc2C(F)(F)F)c2cccnc12 [PB 860] | 91% | 90% | 790 | 160 | – | – | –
6 | O/N=C/c1ccc2cccc(O)c2n1 [PB 969] | 100% | 95% | 540 | 385 | – | – | –
7 | Oc1c(Cl)cc(Cl)c2cccnc12 [PB 45] | 98% | 75% | 400 | 387 | 36.1 | 8500 | –
8 | COc1ccccc1-c1cc(I)c(O)c2ncccc12 [PB 863] | 91% | 35% | < 730 | 386 | – | – | –
9 | O=C(Nc1nccs1)c1ccc2cccc(O)c2n1 [PB 952] | Neuronal cells: 100, 100% | Neuronal cells: 100, 100% | 270 | 268 | – | – | –
10 | Cc1ccc(-c2ccc(C)cn2)nc1 [PB 896] | – | Neuronal cells: 86% (at 10 uM) | 150 | 358 | – | – | –
11 | O=C(NCCc1cnc[nH]1)c1cc(O)c2cccc(O)c2n1 [PB 954] | Neuronal cells: 100, 100% | Neuronal cells: 100, 100% | 120 | 134 | – | – | 1 µM
12 | CN1CCCN(C)CCN(C)CCCN(C)CC1 [PB 933] | – | Neuronal cells: 127% (at 10 μM) | 110 | 279 | – | – | –
13 | NCCNC(=O)c1ccc2cccc(O)c2n1 [PB 957] | 106% | 96% | > 10000 | 190 | – | – | 1 μM, 100 μM
14 | Oc1ccccc1-c1cc(Cl)c2cccnc2c1O [PB 947] | 100% | 70% | 1140 | 244 | – | – | –
15 | O=C(CNC(=O)c1cc(O)c2cccc(O)c2n1)NCCc1c[nH]cn1 [PB 987] | 98% | 89% | 1800 | 393 | – | – | –
16 | Oc1c(-c2ccccc2)cc(-c2ccccc2)c2cccnc12 [PB 809] | 97% | 26% | < 1800 | 146 | – | – | –
17 | Cc1cnc(NC(=O)c2ccc3cccc(O)c3n2)s1 [PB 953] | 94% | 68% | < 420 | 325 | – | – | –
18 | Oc1c(-c2ccccc2C(F)(F)F)cc(Cl)c2cccnc12 [PB 864] | 96% | 93% | 770 | 208 | – | – | –
19 | O=C(NCCc1cnc[nH]1)c1ccc2cccc(O)c2n1 [PB 948] | 100, 100% | 100, 100% | 150 | 576 | – | – | –
20 | Cc1cc(C)c2cccnc2c1O [PB 59] | 86% | 85% | 700 | 293 | – | – | –
21 | CN(c1ccc2cccc(O)c2n1)c1ccc2cccc(O)c2n1 [PB 56] | 80% | 25% | 250 | 311 | – | – | –
22 | CN(CCc1ccccn1)Cc1ccc2cccc(O)c2n1 [PB 990] | 97% | 57% | 400 | 183 | – | – | –
23 | Oc1c(Br)cc(-c2ccccc2)c2cccnc12 [PB 806] | 100% | 97% | < 900 | 311 | – | – | –
24 | O=C(NCCc1ccccn1)c1ccc2cccc(O)c2n1 [PB 950] | 95% | 93% | 150 | 741 | – | – | –
25 | Cc1ccccc1-c1cc(Cl)c2cccnc2c1O [PB 854] | Neuronal cells: 100, 100% | Neuronal cells: 100, 100% | 780 | 520 | – | – | –
26 | O=C(NCc1ccccn1)c1ccc2cccc(O)c2n1 [PB 949] | 96% | 85% | 430 | 201 | – | – | –
27 | Oc1ccc(/C=C/c2ccc3cccc(O)c3n2)cc1 [PB 89] | 100% | 75% | 2500 | 233 | – | – | –
